By IC50 is commonly meant the concentration at which inhibition is half-maximal.

Test [1] deals with T1, SHP-2 full-length protein (Homo sapiens, UniProt Q06124).
T1 construct: purchased BPS Bioscience 79330
T1 sequence (Q06124 1-593): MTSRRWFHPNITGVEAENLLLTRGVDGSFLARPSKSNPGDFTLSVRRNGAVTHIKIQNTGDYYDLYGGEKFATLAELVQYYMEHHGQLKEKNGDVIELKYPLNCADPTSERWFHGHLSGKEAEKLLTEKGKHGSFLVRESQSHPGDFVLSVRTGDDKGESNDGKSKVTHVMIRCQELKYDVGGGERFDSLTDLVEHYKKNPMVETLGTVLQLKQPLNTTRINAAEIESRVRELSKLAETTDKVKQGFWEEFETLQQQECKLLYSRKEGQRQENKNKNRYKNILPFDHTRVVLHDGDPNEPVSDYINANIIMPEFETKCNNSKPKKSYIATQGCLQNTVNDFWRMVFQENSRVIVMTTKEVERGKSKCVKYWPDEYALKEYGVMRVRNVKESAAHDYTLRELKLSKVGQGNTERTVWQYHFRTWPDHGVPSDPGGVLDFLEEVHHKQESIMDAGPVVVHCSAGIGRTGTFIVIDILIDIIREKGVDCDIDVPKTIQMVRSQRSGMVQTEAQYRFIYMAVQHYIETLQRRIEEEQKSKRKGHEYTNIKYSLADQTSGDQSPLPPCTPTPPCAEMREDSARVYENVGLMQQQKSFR
The test can be described thus: Inhibition of SHP-2 kinase activity (Homogeneous Full Length SHP-2 Assay Kit). It counts as biochemical. The settings on record: relative IC50, full-length SHP-2 with activating peptide. Here is the method: The objective of this test is to determine the inhibitory effect of the compounds on SHP-2 full-length protein allosteric activity.
Experimental method: Homogeneous Full Length SHP-2 Assay Kit (BPS Bioscience, #79330) was used to determine the in vitro SHP-2 activity. First, 18 μL of Master Mix was added to a 96-well low adsorption microplate (NUNC, #267342), i.e., the reaction buffer with a final concentration of 1× comprised 0.5 μM SHP-2 activating Peptide and 5 mM DTT. After centrifugation, 5 μL of test compound/DMSO was added to each well (the final DMSO content was 1%, V/V, the test compound was dissolved in DMSO to 1 mM, a three-fold serial dilution was carried out to obtain ten concentrations, the final concentration of the reaction system ranged from 1 μM to 0.05 nM). SHP-2 was diluted in the 1× reaction buffer to a final concentration of 0.06 nM, and the resulting solution was added to the reaction microplate (2 μL per well). Full activity control (compound only with DMSO) and full inhibition control (no SHP-2) were set up on the reaction plate. After centrifugation, the reaction mixture was incubated at room temperature for 60 minutes.
After completion of the incubation, 25 μL of Substrate solution, which comprised Substrate with a final concentration of 10 μM and 5 mM DTT, was added to each well. After centrifugation, the reaction mixture was incubated at room temperature for 30 minutes. After completion of the reaction, readings were measured on the Synergy H1 full-function microplate reader (BioTek) (excitation wavelength: 340 nm, emission wavelength: […], gain value: 75).
The IC50 value of the test compounds was calculated by fitting the percentage inhibition rate and data of ten concentrations to a four-parameter nonlinear logic formula with GraphPad prism.

For a further test, the system named is NCI-H358 cells. As to the kind of experiment: Proliferation inhibition of NCI-H358 cells (CellTiter-Glo). Format: cell-based. To be noted: Homo sapiens, NCI-H358, 72 h; 3 days incubation. How it is done: Experimental method: 3000 cells (90 μL of cell suspension) were inoculated to each well of a 96-well cell culture plate (Corning, #3610). The culture plate was incubated in an incubator overnight (37° C., 5% CO2). On the next day, 10 μL of gradient dilutions of the test compound solution (the final DMSO content was 0.2%, V/V, the final concentration of the reaction system ranged from 10 μM to 4.5 nM) was added to each well of the culture plate. At the same time, full activity control (compound only with DMSO) and full inhibition control (no cells) were set up on the reaction plate. The culture plate was incubated in the incubator for 3 days (37° C., 5% CO2).
After completion of the incubation, 50 μL of CellTiter-Glo reagent was added to each well of the cell culture plate, which was left to stand at room temperature for 10 minutes. The chemiluminescence signal value was measured in the Synergy H1 full-function microplate reader (BioTek). […] The IC50 value of the test compounds was calculated by fitting the percentage inhibition rate and data of eight concentrations to a four-parameter nonlinear logic formula with GraphPad prism.
The IC50 value was calculated by fitting the data of different concentrations and corresponding percentage inhibition rates to a four-parameter nonlinear logic formula with GraphPad prism.
(Cellular ATP, detected with luciferase, serves as a proxy for viable cell number.)

As for `Nc1nc(N2CCC3(CC2)Cc2ccccc2[C@H]3N)cnc1Sc1ccnc(N2CC(F)(F)C2)c1Cl` [Example 102, (S)-1′-(6-amino-5-((3-chloro-2-(3,3-difluoroazetidin-1-yl)pyridin-4-yl)thio)pyrazin-2-yl)-1,3-dihydrospiro[indene-2,4′-piperidin]-1-amine], the IC50 in test [1] stood at 3.75 nM; in the test with NCI-H358 cells, 42.6 nM.

For the compound `CC1=CCC2(CCN(c3nc(N)c(Sc4ccnc(N)c4Cl)nc3F)CC2)[C@@H]1N` [Example 184, (S)-8-(6-amino-5-((2-amino-3-chloropyridin-4-yl)thio)-3-fluoropyrazin-2-yl)-2-methyl-8-azaspiro[4.5]dec-2-en-1-amine], the IC50 worked out at 4.25 nM in test [1] and 56.5 nM with NCI-H358 cells.

As for `Cc1nc(N2CCC3(CC2)Cc2ccccc2[C@H]3N)c(CO)nc1-c1cccc(Cl)c1Cl` [Example 105, (S)-(3-(1-amino-1,3-dihydrospiro[indene-2,4′-piperidin]-1′-yl)-6-(2,3-dichlorophenyl)-5-methylpyrazin-2-yl)methanol], the IC50 in test [1] was found to be 1.56 nM; with NCI-H358 cells, 10.9 nM.

Take `Nc1nc(N2CCC3(CC2)Cc2ccccc2[C@H]3N)cnc1Sc1ccnc(Cl)c1C1CC1` [Example 92, (S)-1′-(6-amino-5-((2-chloro-3-cyclopropylpyridin-4-yl)thio)pyrazin-2-yl)-1,3-dihydrospiro[indene-2,4′-piperidin]-1-amine]: the IC50 in test [1] turned out to be 4.17 nM; with NCI-H358 cells, 10.5 nM.

As for `Nc1nc(N2CCC3(CC2)Cc2ccccc2[C@H]3N)cnc1Sc1ccnc(N2CCC2)c1Cl` [Example 100, (S)-1′-(6-amino-5-((2-(azetidin-1-yl)-3-chloropyridin-4-yl)thio)pyrazin-2-yl)-1,3-dihydrospiro[indene-2,4′-piperidin]-1-amine], the IC50 was 0.98 nM in test [1] and 24.5 nM in the test on NCI-H358 cells.

As to `N[C@@H]1c2ccccc2CC12CCN(c1cnc(Sc3ccnc(C4CC4)c3Cl)cn1)CC2` [Example 97, (S)-1′-(5-((3-chloro-2-cyclopropylpyridin-4-yl)thio)pyrazin-2-yl)-1,3-dihydrospiro[indene-2,4′-piperidin]-1-amine], the IC50 in test [1] is 13.2 nM; with NCI-H358 cells, 41.9 nM.

As to `Cc1nc(N2CCC3(CC2)Cc2ccccc2[C@H]3N)c(CO)nc1Sc1ccnc(N)c1Cl` [Example 170, (S)-(3-(1-amino-1,3-dihydrospiro[indene-2,4′-piperidin]-1′-yl)-6-((2-amino-3-chloropyridin-4-yl)thio)-5-methylpyrazin-2-yl)methanol], the IC50 turned out to be 6.81 nM in test [1] and 25.9 nM in the test with NCI-H358 cells.

In the case of `Nc1nc(N2CCC3(CC2)Cc2ccccc2[C@H]3N)cnc1Sc1ccnc(N)c1C1CC1` [Example 91, (S)-1′-(6-amino-5-((2-amino-3-cyclopropylpyridin-4-yl)thio)pyrazin-2-yl)-1,3-dihydrospiro[indene-2,4′-piperidin]-1-amine], the IC50 in test [1] turned out to be 17.8 nM; with NCI-H358 cells, 37 nM.

Turning to `Nc1nc(N2CCC3(CC2)Cc2nc(Cl)sc2[C@H]3N)cnc1Sc1ccnc(C2CC2)c1Cl` [Example 99, (S)-1′-(6-amino-5-((3-chloro-2-cyclopropylpyridin-4-yl)thio)pyrazin-2-yl)-2-chloro-4,6-dihydrospiro[cyclopenta[d]thiazole-5,4′-piperidin]-6-amine], the half-maximal inhibitory concentration (IC50) in test [1] worked out at 29.6 nM; in the test with NCI-H358 cells, 32.8 nM.

As for `Nc1nc(N2CCC3(CC2)Cc2ccccc2[C@H]3N)cnc1Sc1ccnc(C2CC2)c1Cl` [Example 93, (S)-1′-(6-amino-5-((3-chloro-2-cyclopropylpyridin-4-yl)thio)pyrazin-2-yl)-1,3-dihydrospiro[indene-2,4′-piperidin]-1-amine], the figures for the IC50 (in test [1]; with NCI-H358 cells) were 4.33 nM and 31.1 nM, respectively.

On to `Nc1nc(N2CCC3(CC2)CC2CC2[C@H]3N)cnc1Sc1ccnc(N)c1C1CC1` (stereo partly drawn) [Example 94, (2R)-1′-(6-amino-5-((2-amino-3-cyclopropylpyridin-4-yl)thio)pyrazin-2-yl)spiro[bicyclo[3.1.0]hexane-3,4′-piperidin]-2-amine], for which the IC50 in test [1] is 11.7 nM; in the test with NCI-H358 cells, 184 nM.

Consider `Nc1nc(N2CCC3(CC2)CCC2(CC2)[C@H]3N)cnc1Sc1ccnc(N)c1Cl` [Example 151, (R)-8-(6-amino-5-((2-amino-3-chloropyridin-4-yl)thio)pyrazin-2-yl)-8-azadispiro[2.1.55.23]dodecan-4-amine], for which the IC50 stood at 7.71 nM in test [1] and 137 nM with NCI-H358 cells.

Take `Cc1nc(N2CCC3(CC2)Cc2ccccc2[C@H]3N)c(CO)nc1Sc1ccnc(N)n1` [Example 183, (S)-(3-(1-amino-1,3-dihydrospiro[indene-2,4′-piperidin]-1′-yl)-6-((2-aminopyrimidin-4-yl)thio)-5-methylpyrazin-2-yl)methanol]: the figures for the concentration for half-maximal inhibition (IC50) (in test [1]; with NCI-H358 cells) were 6.7 nM and 105 nM, respectively.

For `Nc1nc(N2CCC3(CC2)Cc2ccccc2[C@H]3N)c(Br)nc1Sc1ccnc(N)c1Cl` [Example 95, (S)-1′-(6-amino-5-((2-amino-3-chloropyridin-4-yl)thio)-3-bromopyrazin-2-yl)-1,3-dihydrospiro[indene-2,4′-piperidin]-1-amine], the values for the IC50 (in test [1]; in the test with NCI-H358 cells) were 6.27 nM and 6.39 nM, respectively.

For the compound `Nc1nc(N2CCC3(CC2)Cc2ccccc2[C@H]3N)cnc1Sc1ccnc(N2CCOCC2)c1Cl` [Example 101, (S)-1′-(6-amino-5-((3-chloro-2-morpholinopyridin-4-yl)thio)pyrazin-2-yl)-1,3-dihydrospiro[indene-2,4′-piperidin]-1-amine], the IC50 stood at 5.22 nM in test [1] and 37.7 nM in the test with NCI-H358 cells.

Turning to `Nc1nc(N2CCC3(CC=C(C4CC4)[C@H]3N)CC2)c(F)nc1Sc1ccnc(N)c1Cl` [Example 182, (S)-8-(6-amino-5-((2-amino-3-chloropyridin-4-yl)thio)-3-fluoropyrazin-2-yl)-2-cyclopropyl-8-azaspiro[4.5]dec-2-en-1-amine], the IC50 amounted to 3.78 nM in test [1] and 78.5 nM with NCI-H358 cells.

Regarding `Nc1nc(N2CCC3(CC2)Cc2ncsc2[C@H]3N)cnc1Sc1ccnc(C2CC2)c1Cl` [Example 98, (S)-1′-(6-amino-5-((3-chloro-2-cyclopropylpyridin-4-yl)thio)pyrazin-2-yl)-4,6-dihydrospiro[cyclopenta[d]thiazole-5,4′-piperidin]-6-amine], the IC50 stood at 3.93 nM in test [1] and 18.5 nM in the test on NCI-H358 cells.

For `Nc1nc(N2CCC3(CC2)Cc2ccccc2[C@H]3N)cnc1Sc1ccnc(N2CCCC2)c1Cl` [Example 103, (S)-1′-(6-amino-5-((3-chloro-2-(pyrrolidin-1-yl)pyridin-4-yl)thio)pyrazin-2-yl)-1,3-dihydrospiro[indene-2,4′-piperidin]-1-amine], the IC50 turned out to be 0.66 nM in test [1] and 47 nM with NCI-H358 cells.
